Laboratory results published in patent US20230167118A1, “DEGRADATION OF BRUTON'S TYROSINE KINASE (BTK) BY CONJUGATION OF BTK INIDBITORS WITH E3 LIGASE LIGAND AND METHODS OF USE” (BEIGENE, LTD., priority 2020, published 2023).
Where a name gives a salt, the structure may show the parent alone.

Columns and labels:
BTK = target: T1, BTK (Homo sapiens, UniProt Q06187); test: Cell Degradation: BTK degradation in TMD-8 cells, HTRF assay; assay type: cell-based; conditions: 6 h treatment, IC50 (DC50) of BTK degradation
T1 construct: High control=Cell group with added DMSO and without compound, indicating microplate readings without BTK degradation; endogenous in cells; host or cells: TMD-8 cells
Summary of the method: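 TMD-8 cells treated 6 h with 8-dose 6-fold dilutions in 0.2% DMSO, then lysed and BTK quantified by HTRF (665/620 nm). Degradation % normalised to high/low controls; DC50 from four-parameter fit, Dmax as maximal degradation.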

HEK-293 cells = test: HEK-293 Cytotoxicity Assay (CellTiter-Glo); assay type: cell-based; conditions: Homo sapiens, HEK293, 72 h incubation, CellTiter-Glo luminescence
Summary of the method: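 HEK-293 cells treated 72 h with 8 concentrations (4-fold dilutions, 0.2% DMSO final). Viability read by CellTiter-Glo luminescence; IC50 from four-parameter logistic fit of % inhibition.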

T1 sequence (Q06187 whole entry): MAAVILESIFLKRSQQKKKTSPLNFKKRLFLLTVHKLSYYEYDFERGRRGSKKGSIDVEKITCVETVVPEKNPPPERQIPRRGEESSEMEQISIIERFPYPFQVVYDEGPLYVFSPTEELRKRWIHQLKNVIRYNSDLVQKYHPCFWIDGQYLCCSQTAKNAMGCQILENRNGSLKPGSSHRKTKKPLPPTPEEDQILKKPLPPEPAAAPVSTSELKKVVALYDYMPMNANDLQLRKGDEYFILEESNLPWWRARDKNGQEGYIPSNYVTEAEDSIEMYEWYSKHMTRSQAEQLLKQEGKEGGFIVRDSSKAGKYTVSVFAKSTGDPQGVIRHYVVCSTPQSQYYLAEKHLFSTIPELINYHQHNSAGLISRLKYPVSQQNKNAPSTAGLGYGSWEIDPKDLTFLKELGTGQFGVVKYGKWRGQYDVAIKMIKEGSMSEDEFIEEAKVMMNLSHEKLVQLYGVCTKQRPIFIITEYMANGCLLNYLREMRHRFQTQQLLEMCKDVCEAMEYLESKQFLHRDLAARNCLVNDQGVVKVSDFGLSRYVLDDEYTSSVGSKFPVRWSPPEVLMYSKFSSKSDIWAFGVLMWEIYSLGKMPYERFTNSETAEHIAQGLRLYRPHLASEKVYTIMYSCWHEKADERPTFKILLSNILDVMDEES

## Cc1cc(-c2ncnc3[nH]c(-c4ccc(C5CCN(CC6CCN(c7ccc(N8CCC(=O)NC8=O)cc7F)CC6)CC5)cc4)cc23)ccc1CNC(=O)c1nc(C(C)(C)C)no1 [Example 39, 3-(tert-butyl)-N-(4-(6-(4-(1-((1-(4-(2,4-dioxotetrahydropyrimidin-1(2H)-yl)-2-fluorophenyl)piperidin-4-yl)methyl)piperidin-4-yl)phenyl)-7H-pyrrolo[2,3-d]pyrimidin-4-yl)-2-methylbenzyl)-1,2,4-oxadiazole-5-carboxamide Formate]
BTK
  DC50: 1.1 nM
HEK-293 cells
  IC50: > 10000 nM

## Cc1cc(-c2ncnc3[nH]c(-c4ccc(C5CCN(CC6CCN(c7ccc(N8CCC(=O)NC8=O)cc7)CC6)CC5)cc4)cc23)ccc1CNC(=O)c1cn(C(C)(C)C)nn1 [Example 40, 1-(tert-butyl)-N-(4-(6-(4-(1-((1-(4-(2,4-dioxotetrahydropyrimidin-1(2H)-yl)phenyl)piperidin-4-yl)methyl)piperidin-4-yl)phenyl)-7H-pyrrolo[2,3-d]pyrimidin-4-yl)-2-methylbenzyl)-1H-1,2,3-triazole-4-carboxamide]
BTK
  DC50: 0.63 nM
HEK-293 cells
  IC50: > 10000 nM

## Cc1cc(-c2ncnc3[nH]c(-c4ccc(N5CCN(CC6CCN(c7ccc(N8CCC(=O)NC8=O)cc7)CC6)CC5)cc4)cc23)ccc1[C@@H](C)NC(=O)c1noc(C(C)(C)C)n1 [Example 41, (R)-5-(tert-butyl)-N-(1-(4-(6-(4-(4-((1-(4-(2,4-dioxotetrahydropyrimidin-1(2H)-yl)phenyl)piperidin-4-yl)methyl)piperazin-1-yl)phenyl)-7H-pyrrolo[2,3-d]pyrimidin-4-yl)-2-methylphenyl)ethyl)-1,2,4-oxadiazole-3-carboxamide]
BTK
  DC50: 1.3 nM
HEK-293 cells
  IC50: > 10000 nM

## CC(C)(C)c1noc(C(=O)NCc2ccc(-c3ncnc4[nH]c(-c5ccc(N6CCN(CC7CCN(c8ccc(N9CCC(=O)NC9=O)cc8)CC7)CC6)nc5)cc34)cc2F)n1 [Example 42, 3-(tert-butyl)-N-(4-(6-(6-(4-((1-(4-(2,4-dioxotetrahydropyrimidin-1(2H)-yl)phenyl)piperidin-4-yl)methyl)piperazin-1-yl)pyridin-3-yl)-7H-pyrrolo[2,3-d]pyrimidin-4-yl)-2-fluorobenzyl)-1,2,4-oxadiazole-5-carboxamide]
BTK
  DC50: 0.51 nM
HEK-293 cells
  IC50: > 10000 nM

## Cc1cc(-c2ncnc3[nH]c(-c4ccc(N5CCN(CC6CCN(c7cc(F)ccc7N7CCC(=O)NC7=O)CC6)CC5)cc4)cc23)ccc1[C@@H](C)NC(=O)c1nc(C(C)(C)C)no1 [Example 43, (R)-3-(tert-butyl)-N-(1-(4-(6-(4-(4-((1-(2-(2,4-dioxotetrahydropyrimidin-1(2H)-yl)-5-fluorophenyl)piperidin-4-yl)methyl)piperazin-1-yl)phenyl)-7H-pyrrolo[2,3-d]pyrimidin-4-yl)-2-methylphenyl)ethyl)-1,2,4-oxadiazole-5-carboxamide]
BTK
  DC50: > 2000 nM
HEK-293 cells
  IC50: > 10000 nM

## Cc1cc(-c2ncnc3[nH]c(-c4ccc(N5CCN(CC6CCN(c7ccc(N8CCC(=O)NC8=O)c(C)c7)CC6)CC5)cc4)cc23)ccc1[C@@H](C)NC(=O)c1nc(C(C)(C)C)no1 [Example 44, (R)-3-(tert-butyl)-N-(1-(4-(6-(4-(4-((1-(4-(2,4-dioxotetrahydropyrimidin-1(2H)-yl)-3-methylphenyl)piperidin-4-yl)methyl)piperazin-1-yl)phenyl)-7H-pyrrolo[2,3-d]pyrimidin-4-yl)-2-methylphenyl)ethyl)-12,4-oxadiazole-5-carboxamide]
BTK
  DC50: 1.2 nM
HEK-293 cells
  IC50: > 10000 nM

## COc1cc(N2CCC(CN3CCN(c4ccc(-c5cc6c(-c7ccc([C@@H](C)NC(=O)c8nc(C(C)(C)C)no8)c(C)c7)ncnc6[nH]5)cc4)CC3)CC2)ccc1N1CCC(=O)NC1=O [Example 45, (R)-3-(tert-butyl)-N-(1-(4-(6-(4-(4-((1-(4-(2,4-dioxotetrahydropyrimidin-1(2H)-yl)-3-methoxyphenyl)piperidin-4-yl)methyl)piperazin-1-yl)phenyl)-7H-pyrrolo[2,3-d]pyrimidin-4-yl)-2-methylphenyl)ethyl)-1,2,4-oxadiazole-5-carboxamide]
BTK
  DC50: 1.8 nM
HEK-293 cells
  IC50: > 10000 nM

## Cc1cc(-c2ncnc3[nH]c(-c4ccc(N5CCN(CC6CCN(c7ccc(N8CCC(=O)NC8=O)cc7)CC6)CC5)cc4)cc23)ccc1CNC(=O)c1csc(C(C)(C)C)n1 [Example 46, 2-(tert-butyl)-N-(4-(6-(4-(4-((1-(4-(2,4-dioxotetrahydropyrimidin-1(2H)-yl)phenyl)piperidin-4-yl)methyl)piperazin-1-yl)phenyl)-7H-pyrrolo[2,3-d]pyrimidin-4-yl)-2-methylbenzyl)thiazole-4-carboxamide]
BTK
  DC50: 5.3 nM
HEK-293 cells
  IC50: > 10000 nM

## Cc1cc(-c2ncnc3[nH]c(-c4ccc(N5CCN(CC6CCN(c7ccc(N8CCC(=O)NC8=O)cc7)CC6)CC5)cc4)cc23)ccc1CNC(=O)c1cnc(C(C)(C)C)s1 [Example 47, 2-(tert-butyl)-N-(4-(6-(4-(4-((1-(4-(2,4-dioxotetrahydropyrimidin-1(2H)-yl)phenyl)piperidin-4-yl)methyl)piperazin-1-yl)phenyl)-7H-pyrrolo[2,3-d]pyrimidin-4-yl)-2-methylbenzyl)thiazole-5-carboxamide]
BTK
  DC50: 1.8 nM
HEK-293 cells
  IC50: > 10000 nM

## Cc1cc(-c2ncnc3[nH]c(-c4ccc(N5CCN(CC6CCN(c7ccc(C8CCC(=O)NC8=O)cc7)CC6)CC5)nc4)cc23)ccc1[C@@H](C)NC(=O)c1nc(C(C)(C)C)no1 (stereo partly drawn) [Example 48, 3-(tert-butyl)-N-((1R)-1-(4-(6-(6-(4-((1-(4-(2,6-dioxopiperidin-3-yl)phenyl)piperidin-4-yl)methyl)piperazin-1-yl)pyridin-3-yl)-7H-pyrrolo[2,3-d]pyrimidin-4-yl)-2-methylphenyl)ethyl)-1,2,4-oxadiazole-5-carboxamide]
BTK
  DC50: 1.7 nM
HEK-293 cells
  IC50: > 10000 nM

## Cc1cc(-c2ncnc3[nH]c(-c4ccc(OC5CCN(CC6CCN(c7ccc(N8CCC(=O)NC8=O)cc7)CC6)CC5)cc4)cc23)ccc1CNC(=O)c1nc(C(C)(C)C)no1 [Example 49, 3-(tert-butyl)-N-(4-(6-(4-((1-((1-(4-(2,4-dioxotetrahydropyrimidin-1(2H)-yl)phenyl)piperidin-4-yl)methyl)piperidin-4-yl)oxy)phenyl)-7H-pyrrolo[2,3-d]pyrimidin-4-yl)-2-methylbenzyl)-1,2,4-oxadiazole-5-carboxamide]
BTK
  DC50: 1.3 nM
HEK-293 cells
  IC50: > 10000 nM

## Cc1cc(-c2ncnc3[nH]c(-c4ccc(N5CCN(CC6CCN(c7ccc(N8CCC(=O)NC8=O)cc7)CC6)CC5)cc4)cc23)ccc1CNC(=O)c1noc(C(C)(C)C(F)(F)F)n1 [Example 50, N-(4-(6-(4-(4-((1-(4-(2,4-dioxotetrahydropyrimidin-1(2H)-yl)phenyl)piperidin-4-yl)methyl)piperazin-1-yl)phenyl)-7H-pyrrolo[2,3-d]pyrimidin-4-yl)-2-methylbenzyl)-5-(1,1,1-trifluoro-2-methylpropan-2-yl)-1,2,4-oxadiazole-3-carboxamide]
BTK
  DC50: 1.1 nM
HEK-293 cells
  IC50: > 10000 nM

## Cc1cc(-c2ncnc3[nH]c(-c4ccc(N5CCN(CC6CCN(c7ccc(N8CCC(=O)NC8=O)cc7)CC6)CC5)cc4)cc23)ccc1CNC(=O)c1noc(C2(C(F)(F)F)CC2)n1 [Example 51, N-(4-(6-(4-(4-((1-(4-(2,4-dioxotetrahydropyrimidin-1(2H)-yl)phenyl)piperidin-4-yl)methyl)piperazin-1-yl)phenyl)-7H-pyrrolo[2,3-d]pyrimidin-4-yl)-2-methylbenzyl)-5-(1-(trifluoromethyl)cyclopropyl)-1,2,4-oxadiazole-3-carboxamide]
BTK
  DC50: 0.38 nM
HEK-293 cells
  IC50: > 10000 nM

## Cc1cc(N2CCC(CN3CCN(c4ccc(-c5cc6c(-c7ccc([C@@H](C)NC(=O)c8nc(C(C)(C)C)no8)c(F)c7)ncnc6[nH]5)cn4)CC3)CC2)ccc1N1CCC(=O)NC1=O [Example 52, (R)-3-(tert-butyl)-N-(1-(4-(6-(6-(4-((1-(4-(2,4-dioxotetrahydropyrimidin-1(2H)-yl)-3-methylphenyl)piperidin-4-yl)methyl)piperazin-1-yl)pyridin-3-yl)-7H-pyrrolo[2,3-d]pyrimidin-4-yl)-2-fluorophenyl)ethyl)-1,2,4-oxadiazole-5-carboxamide]
BTK
  DC50: 1.7 nM
HEK-293 cells
  IC50: > 10000 nM

## Cc1cc(-c2ncnc3[nH]c(-c4ccc(N5CCN(CCC6CCN(c7ccc([C@H]8CCC(=O)NC8=O)cc7)CC6)CC5)nc4)cc23)ccc1[C@@H](C)NC(=O)c1nc(C(C)(C)C)no1 [Example 53, 3-(tert-butyl)-N-((R)-1-(4-(6-(6-(4-(2-(1-(4-((R)-2,6-dioxopiperidin-3-yl)phenyl)piperidin-4-yl)ethyl)piperazin-1-yl)pyridin-3-yl)-7H-pyrrolo[2,3-d]pyrimidin-4-yl)-2-methylphenyl)ethyl)-1,2,4-oxadiazole-5-carboxamide]
BTK
  DC50: > 2000 nM
HEK-293 cells
  IC50: > 10000 nM

## Cc1cc(-c2ncnc3[nH]c(-c4ccc(N5CCN(CCC6CCN(c7ccc([C@@H]8CCC(=O)NC8=O)cc7)CC6)CC5)nc4)cc23)ccc1[C@@H](C)NC(=O)c1nc(C(C)(C)C)no1 [Example 54, 3-(tert-butyl)-N-((R)-1-(4-(6-(6-(4-(2-(1-(4-((S)-2,6-dioxopiperidin-3-yl)phenyl)piperidin-4-yl)ethyl)piperazin-1-yl)pyridin-3-yl)-7H-pyrrolo[2,3-d]pyrimidin-4-yl)-2-methylphenyl)ethyl)-1,2,4-oxadiazole-5-carboxamide]
BTK
  DC50: 3.7 nM
HEK-293 cells
  IC50: > 10000 nM

## Cc1cc(-c2ncnc3[nH]c(-c4ccc(N5CCN(CC6CCN(c7ccc(C8CCC(=O)NC8=O)cc7)CC6)CC5)cc4)cc23)ccc1[C@@H](C)NC(=O)c1nc(C(C)(C)C)no1 (stereo partly drawn) [Example 55, (R)-3-(tert-butyl)-N-(1-(4-(6-(4-(4-((1-(4-(2,6-dioxopiperidin-3-yl)phenyl)piperidin-4-yl)methyl)piperazin-1-yl)phenyl)-7H-pyrrolo[2,3-d]pyrimidin-4-yl)-2-methylphenyl)ethyl)-1,2,4-oxadiazole-5-carboxamide]
BTK
  DC50: 3.2 nM
HEK-293 cells
  IC50: > 10000 nM
